Laboratory results: patent publication US20080138284A1, “Novel Peptides That Promote Lipid Efflux” (Lipid Sciences, Inc., priority 2006, published 2008)
Ends that are not written are not given here.

Columns and labels:
[1] = tested on: atherosclerotic coronary artery; assay: Coronary atherosclerosis by IVUS in individuals with acute coronary syndrome; assay type: in vivo, human; details: iv weekly for 5 to 8 weeks, on stable hypolipidemic drug therapy
Source text: Individuals with acute coronary syndrome and documented atherosclerosis have a cardiac catherization with intravascular ultrasound (IVUS) to document coronary atherosclerosis of 20 to 50% obstruction in the target artery. Each individual is on stable hypolipidemic drug therapy and receives an acceptable dose of a peptide of the present invention and/or an associated fragment iv weekly for a period of 5 to 8 weeks. A repeat IVUS measurement is made at the end of the treatment period to assess the effect of the peptide infusion on coronary atherosclerosis in the target vessel.

[2] = tested on: apoE knockout mice on a chow diet and LDL receptor knockout mice on a western high fat diet; assay: Aortic arch atherosclerosis in knockout mice; assay type: in vivo, mouse; details: 2 mg/kg to 50 mg/kg iv or ip, 2 to 3 times per week, approximately 6 weeks
Experimental: The ability of the peptides of the present invention and associated fragments are tested in apoE knockout mice on a chow diet and LDL receptor knockout mice on a western high fat diet to determine the effect of these peptides to reduce atherosclerosis in a mouse model system. One or more of the peptides of the present invention, in a range of concentration of 2 mg/kg to 50 mg/kg, is injected intravenously (iv) or intraperitoneally (ip) 2 to 3 times per week over a period of approximately 6 weeks. Aortic atherosclerosis is quantitated in the aortic arch before administration of the peptides and after the 6 week period of administration. (Wu et al., J. Biol. Chem.; 2004: 279, 22913-22925).

[3] = tested on: HeLa cells transfected with only a hygromycin-resistant control plasmid (control cells); assay: Cholesterol and phospholipid efflux from control HeLa cells (incl. time course); assay type: cell-based, human; details: for cholesterol efflux from control cells, time course: rate compared with ABCA1 cells
Experimental: HeLa cells stably transfected with human ABCA1 cDNA (ABCA1 cells) and HeLa cells transfected with only a hygromycin-resistant control plasmid (control cells) are produced and grown in α-modified Eagle's medium (aMEM) plus 10% fetal calf serum, as described by Remaley et al. (Biochem. Biophys. Res. Commun. 280:818-823, 2001). Cholesterol and phospholipid efflux is performed for 18 hours on noncholesterol-loaded cells radiolabeled with either cholesterol or choline (Remaley et al., Arterioscler. Thromb. Vasc. Biol. 17:1813-1821, 1997). Percentage efflux is calculated after subtracting the radioactive counts in the blank media (aMEM plus 1 mg/ml of BSA), and expressed as the percent of total radioactive counts removed from the cells during the efflux period.
ABCA1 cells are used to assess the ability of apoA-I and synthetic peptides to efflux lipid from cells. […] The peptides of the present invention efflux approximately 2- to 4-fold more cholesterol and phospholipid from ABCA1 cells than from control cells. Both the peptides of the present invention and apoA-I began to show saturation for lipid efflux at approximately the same protein concentration of 10 μg/ml.
Cholesterol efflux from ABCA1 cells to apoA-I is first detectable after 2 hours and increases throughout the 30 hour efflux period. […] Overall, the kinetics for cholesterol efflux to peptides of the present invention from ABCA1 cells is similar to that of apoA-I, except that cholesterol efflux is first detectable after 30 minutes.

Substance	plaque in the atherosclerotic coronary artery (IVUS) [1]	atherosclerosis in the aortic arch [2]	removal of cholesterol and phospholipids from control cells relative to Apo A-I [3]	cholesterol efflux from control cells, time course [3]
SDELRQRLAARLEALKENAKPVLLESFKVSFLSALEEYTKK [SEQ ID NO:80]	reduce plaque in the atherosclerotic coronary artery	reduce atherosclerosis in the aortic arch	comparable to or more than that removed by Apo A-I	promote cholesterol efflux from control cells but at a lower rate
LESAKVSALSALEEATKKAKPVLLESFKVSFLSALEEYTKK [SEQ ID NO:89]	reduce plaque in the atherosclerotic coronary artery	reduce atherosclerosis in the aortic arch	comparable to or more than that removed by Apo A-I	promote cholesterol efflux from control cells but at a lower rate
GEEMRDRARAHVDALRTHAKPVLLESFKVSFLSALEEYTKK [SEQ ID NO:72]	reduce plaque in the atherosclerotic coronary artery	reduce atherosclerosis in the aortic arch	comparable to or more than that removed by Apo A-I	promote cholesterol efflux from control cells but at a lower rate
Ac-Ser Asp Glu Leu Arg Gln Arg Leu Ala Ala Arg Leu Glu Ala Leu Lys Glu Asn Ala Lys Pro Val Leu Leu Glu Ser Phe Lys Val Ser Phe Leu Ser Ala Leu Glu Glu Tyr Thr Lys Lys-NH2 (Ac-SDELRQRLAARLEALKENAKPVLLESFKVSFLSALEEYTKK-NH2) [SEQ ID NO:355]	reduce plaque in the atherosclerotic coronary artery	reduce atherosclerosis in the aortic arch	comparable to or more than that removed by Apo A-I	promote cholesterol efflux from control cells but at a lower rate
Ac-Leu Glu Ser Ala Lys Val Ser Ala Leu Ser Ala Leu Glu Glu Ala Thr Lys Lys Ala Lys Pro Val Leu Leu Glu Ser Phe Lys Val Ser Phe Leu Ser Ala Leu Glu Glu Tyr Thr Lys Lys-NH2 (Ac-LESAKVSALSALEEATKKAKPVLLESFKVSFLSALEEYTKK-NH2) [SEQ ID NO:372]	reduce plaque in the atherosclerotic coronary artery	reduce atherosclerosis in the aortic arch	comparable to or more than that removed by Apo A-I	promote cholesterol efflux from control cells but at a lower rate
Ac-Gly Glu Glu Met Arg Asp Arg Ala Arg Ala His Val Asp Ala Leu Arg Thr His Ala Lys Pro Val Leu Leu Glu Ser Phe Lys Val Ser Phe Leu Ser Ala Leu Glu Glu Tyr Thr Lys Lys-NH2 (Ac-GEEMRDRARAHVDALRTHAKPVLLESFKVSFLSALEEYTKK-NH2) [SEQ ID NO:354]	reduce plaque in the atherosclerotic coronary artery	reduce atherosclerosis in the aortic arch	comparable to or more than that removed by Apo A-I	promote cholesterol efflux from control cells but at a lower rate
